The results in this text go back to US11241483B2, “Methods of treating mild brain injury” (The Regents of the University of California, priority 2014, dated 2022).

Entries after “also recorded” stand apart in the source; their conditions may differ. Ends that are not written are not given here.

Assay [1] concerns oxidative burst in inflammatory cells (reactive oxygen species). In words: Oxidative burst (ROS, DHR 123 flow cytometry) in leukocytes isolated from brain tissue after mild brain injury (controlled cortical impact). It is filed as in vivo, C57/B6 mice. The procedure:
FIG. 1 depicts principle of assaying oxidative burst within inflammatory cells. Dihydrorhodamine 123 (DHR 123) diffuses across the cell membrane. When it encounters reactive oxygen species (ROS), DHR 123 is oxidized and fluoresces green. The fluorescence is then measured and presented as arbitrary fluorescence unit (AFU), wherein higher intensity means greater oxidative burst and, therefore greater concentration of amount of ROS (See Chen, et al., Measurement of oxidative burst in neutrophils,” Methods Mol Biol., 844: 115-124 (2012); which is incorporated herein by reference in its entirety).
Ghrelin administration reduces oxidative burst in inflammatory cells following mBI. Since no well-accepted animal model exists for concussions, a very small cerebral lesion that closely mimics mBI is used as a model of mBI. […] Anesthesia is assessed by paw pinch reflex. […]
Animals are separated into three treatment groups: 1) Sham, 2) mBI, and 3) mBI plus ghrelin. […] The fluorescence is then measured and presented as arbitrary fluorescence unit (AFU), wherein higher intensity means greater oxidative burst and, therefore greater concentration or amount of ROS. […] Oxidative burst, which is a marker for ROS, can be measured by flow cytometry (e.g., FL1 channel with 488-nm laser).

Assay [2] concerns blood brain barrier (BBB) vascular permeability; Aquaporin 4 (AQP-4). Nature of the assay: Ghrelin treatment of TBI animals (background statement): BBB vascular permeability and Aquaporin 4 expression. The conditions noted are these: following TBI. In kind it is in vivo.

For “Gly-Ser-Ser-Phe-Leu-Ser-Pro-Glu-His-Gln-Arg-Val-Gln-Gln-Arg-Lys-Glu-Ser-Lys-Lys-Pro-Pro-Ala-Lys-Leu-Gln-Pro-Arg (SEQ ID NO. 1) (GSSFLSPEHQRVQQRKESKKPPAKLQPR; not fully specified (residues 2, 3); printed as Gly-Ser-Ser-Phe-Leu-Ser-Pro-Glu-His-Gln-Arg-Val-Gln-Gln-Arg-Lys-Glu-Ser-Lys-Lys-Pro-Pro-Ala-Lys-Leu-Gln-Pro-Arg; also: octanoyl on Ser2 and/or Ser3 stated only as an option; listed as Homo sapiens) [ghrelin, 28-amino acid peptide, neuroendocrine hormone, endogenous ligand for growth hormone secretagogue receptor; obtainable from Phoenix Pharmaceuticals]”, the “Oxidative burst of ipsilateral whole brain following mild BI (mean fluorescence intensity)” value in assay [1] (mild BI+ghrelin (2 doses), subcutaneous 10 μg following mBI and 10 μg 1 hour after, vs 7963 AFU±2900 mild BI and 4624 AFU±1858 sham, n=5, p=0.048) was 3257 AFU. Also, the “Oxidative burst in inflammatory cells following mBI (FIG. 2, peak shift)” value in assay [1] (subcutaneous ghrelin vs untreated mBI, n=3 animals in each group) is on record as “reduced the oxidative burst; also recorded: lower oxidative burst”. Moreover, the “Post-TBI up-regulation of Aquaporin 4 (AQP-4)” value in assay [2] is “prevents post-TBI up-regulation of Aquaporin 4”.
